Reference: DBAASP
Values after ≈ are worked out from the molar mass of the structure shown.

Experiments:
Experiment in all cases: ≥ marks a high value that may be exact or a test limit, other limits are often not marked, values filed in µg/mL are converted to µM
[1] = system: Staphylococcus aureus ATCC 12600
[2] = system: Staphylococcus aureus
[3] = system: Escherichia coli KpC+001812446
[4] = system: Enterobacter cloacae
[5] = system: Klebsiella pneumoniae KpC+001825971
[6] = system: Staphylococcus aureus ATCC 25923
[7] = system: Escherichia coli ATCC 8739
[8] = system: Escherichia coli ATCC 25922
[9] = system: Pseudomonas aeruginosa PAO1
[10] = system: Acinetobacter baumannii
[11] = system: Klebsiella pneumoniae ATCC 13883
[12] = system: Pseudomonas aeruginosa PA14
[13] = system: Mycobacterium tuberculosis WXY
[14] = system: Mycobacterium tuberculosis CAS3
[15] = system: Mycobacterium tuberculosis H37Rv
[16] = system: Salmonella enterica serovar typhimurium MS7953s
[17] = system: Candida albicans C627
[18] = system: Staphylococcus aureus C623
[19] = system: Aeromonas salmonicida 97-4
[20] = system: Pseudomonas aeruginosa K799
[21] = system: Pseudomonas aeruginosa Z61
[22] = system: Escherichia coli DC2
[23] = system: Staphylococcus epidermidis C621
[24] = system: Aeromonas salmonicida 99-1
[25] = system: Escherichia coli CGSC 4908
[26] = system: Salmonella enterica subsp. enterica serovar Typhimurium ATCC 14028s
[27] = system: Escherichia coli UB1005
[28] = system: Staphylococcus aureus ATCC 43300
[29] = system: Salmonella enterica subsp. enterica serovar Pullorum C79-13
[30] = system: Lacticaseibacillus rhamnosus 1.0936
[31] = system: Salmonella enterica subsp. enterica serovar Choleraesuis CVCC 503
[32] = system: Pseudomonas aeruginosa ATCC 27853
[33] = system: Staphylococcus aureus ATCC 29213
[34] = system: Streptococcus agalactiae BNCC 185941
[35] = system: Escherichia coli O157:H7 CICC 21530
[36] = system: Salmonella enterica subsp. enterica serovar Typhimurium ATCC 14028
[37] = system: Lacticaseibacillus rhamnosus 8014
[38] = system: Lacticaseibacillus rhamnosus 1.0911
[39] = system: Escherichia coli K88
[40] = system: Lacticaseibacillus rhamnosus 1.9021
[41] = system: Staphylococcus epidermidis ATCC 12228

SMILES: CC[C@H](C)[C@H](NC(=O)[C@H](CCCCN)NC(=O)[C@H](CCCCN)NC(=O)CNC(=O)[C@H](CC(C)C)NC(=O)[C@H](CCCN=C(N)N)NC(=O)[C@H](CCCCN)NC(=O)[C@H](CC(C)C)NC(=O)[C@H](CC(C)C)NC(=O)[C@H](CCCCN)NC(=O)[C@H](CCSC)NC(=O)[C@@H]1CCCN1)C(=O)N[C@@H](CCCN=C(N)N)C(=O)N[C@@H](CC(C)C)C(=O)N[C@@H](C)C(=O)N[C@@H](C)C(=O)N[C@@H](C)C(=O)N[C@@H](Cc1ccccc1)C(=O)N[C@@H](CCCCN)C(=O)O [PMKLLKRLGKKIRLAAAFK]
- MIC [1]: 4 µM (≈ 8.73 µg/mL)
- MIC [2]: 16 µM (≈ 34.9 µg/mL)
- MIC [3]: 2 µM (≈ 4.37 µg/mL)
- MIC [4]: ≥ 32 µM
- MIC [5]: ≥ 32 µM
- MIC [6]: 16 µM (≈ 34.9 µg/mL)
- MIC [7]: 14.7 µM (≈ 32 µg/mL)
- MIC [8]: 4 µM (≈ 8.73 µg/mL)
- MIC [9]: 4 µM (≈ 8.73 µg/mL)
- MIC [10]: 4 µM (≈ 8.73 µg/mL)
- MIC [11]: 8 µM (≈ 17.5 µg/mL)
- MIC [12]: 4 µM (≈ 8.73 µg/mL)

SMILES: CC(C)C[C@H](NC(=O)[C@H](C)NC(=O)[C@H](C)NC(=O)[C@@H](NC(=O)[C@H](C)N)C(C)C)C(=O)N[C@@H](CC(C)C)C(=O)N[C@@H](CCCN=C(N)N)C(=O)N[C@@H](Cc1c[nH]c2ccccc12)C(=O)N[C@@H](Cc1c[nH]c2ccccc12)C(=O)N[C@@H](CO)C(=O)N[C@@H](CCCN=C(N)N)C(=O)N[C@@H](Cc1c[nH]c2ccccc12)C(=O)N[C@@H](Cc1c[nH]c2ccccc12)C(=O)N[C@@H](C)C(=O)N[C@@H](C)C(=O)O [AVAALLRWWSRWWAA]
- MIC [13]: ≥ 40.7 µM
- MIC [14]: ≥ 40.7 µM
- MIC [15]: ≥ 40.7 µM

SMILES: CC(=O)[C@H](C)NC(=O)[C@H](Cc1ccccc1)NC(=O)[C@H](Cc1cnc[nH]1)NC(=O)[C@H](CCCNC(=N)N)NC(=O)[C@H](CCC(N)=O)NC(=O)[C@H](CO)NC(=O)[C@H](CC(C)C)NC(=O)[C@H](CCCNC(=N)N)NC(=O)[C@H](CCC(=O)O)NC(=O)CNC(=O)[C@H](CCCCN)NC(=O)[C@@H](NC(=O)[C@H](Cc1ccccc1)NC(=O)[C@H](Cc1c[nH]c2ccccc12)NC(=O)[C@H](CCCCN)NC(=O)[C@H](CCCCN)NC(=O)[C@H](Cc1c[nH]c2ccccc12)NC(=O)CN)[C@@H](C)O [GWKKWFTKGERLSQRHFA]
- MIC [16]: 14.1 µM (≈ 32 µg/mL)
- MIC [17]: 28.3 µM (≈ 63.9 µg/mL)
- MIC [18]: 28.3 µM (≈ 63.9 µg/mL)
- MIC [19]: ≥ 56.6 µM
- MIC [20]: 28.3 µM (≈ 63.9 µg/mL)
- MIC [21]: 28.3 µM (≈ 63.9 µg/mL)
- MIC [22]: 28.3 µM (≈ 63.9 µg/mL)
- MIC [23]: 28.3 µM (≈ 63.9 µg/mL)
- MIC [24]: 28.3 µM (≈ 63.9 µg/mL)
- MIC [25]: 28.3 µM (≈ 63.9 µg/mL)
- MIC [26]: 28.3 µM (≈ 63.9 µg/mL)
- MIC [27]: 28.3 µM (≈ 63.9 µg/mL)

SMILES: CC(C)C[C@H](NC(=O)[C@H](CCCCN)NC(=O)CNC(=O)[C@H](CCCCN)NC(=O)[C@H](CC(C)C)NC(=O)[C@H](Cc1c[nH]c2ccccc12)NC(=O)[C@H](CC(C)C)NC(=O)[C@H](CCCCN)NC(=O)CNC(=O)[C@H](CCCCN)NC(=O)[C@@H](N)CC(C)C)C(N)=O [LKGKLWLKGKL]
- MIC [28]: > 128 µM
- MIC [29]: 8 µM (≈ 10.3 µg/mL)
- MIC [30]: ≥ 128 µM
- MIC [31]: ≥ 128 µM
- MIC [32]: 32 µM (≈ 41 µg/mL)
- MIC [33]: > 128 µM
- MIC [34]: ≥ 128 µM
- MIC [35]: ≥ 64 µM
- MIC [36]: 64 µM (≈ 82.1 µg/mL)
- MIC [37]: ≥ 128 µM
- MIC [38]: ≥ 128 µM
- MIC [9]: 32 µM (≈ 41 µg/mL)
- MIC [39]: 8 µM (≈ 10.3 µg/mL)
- MIC [40]: ≥ 128 µM
- MIC [41]: > 128 µM
